Results on one compound are retold here after EP0863156A1, “Peptides useful as somatostatin antagonists” (American Cyanamid Company, priority 1997, dated 1998).

Square brackets hold non-standard residues; d marks the D form. Peptide text beside a SMILES is read from it.

One experiment addresses T1, SRIF receptors (Rattus norvegicus, UniProt P30680).
T1 construct: expressed in transfected cells; host or cells: Saccharomyces cerevisiae strain LY364
Description: Yeast bioassay for SRIF antagonist activity (zone of growth inhibition of LY364 cells growing in response to SRIF). Format: cell-based. Particulars: 10 µL of 5 mg/mL on filter disk, S-14 10 nM. The procedure: Agar plates containing LY364 cells that are growing in the presence of added SRIF are the basis for a sensitive SRIF antagonist assay, whereby zones of growth inhibition result from the addition of SRIF antagonists to the surface of the agar plate (see L.A. Price, et al., Molecular and Cellular Biology, 15, 6188-6195, 1995, incorporated herein by reference).
In this assay, LY364 cells are grown overnight in 2 mL of synthetic complete(SC) medium (3.4 g/L YNB without amino acids and ammonium sulfate, 10 g/L ammonium sulfate and 1.4 g/L CSM-ura-trp) with glucose (2%) and without uracil and tryptophan. These cells are washed and cultured for 4 to 8 hours in 5 mL of SC medium with lactate (3%) and without uracil and tryptophan, and finally grown overnight in 5 mL of SC medium with galactose (2%) and without uracil and tryptophan. Molten (50° C) SC agar medium with galactose (2%) and without uracil, tryptophan and histidine is adjusted to pH 6.8 with KOH, mixed with 2 x 10^4 cells/mL and SRIF (S-14, 10 nM) and poured into square (20 x 20 cm) petri dishes. Sterile filter disks are placed on the surface of the agar, and saturated with 10 µL of water or DMSO containing 5 mg/mL test peptides. After three days, the plates display a uniform cloudy background of […] cells growing in response to the added SRIF. […] This zone is quantified by measuring its diameter (mm), which varies according to the potency of the SRIF antagonist. Those peptides or mixtures of peptides displaying the largest zones of inhibition are further characterized.
Values are compared among samples in the same experiment, as the degree of yeast growth varies somewhat from assay to assay. For the first five sample types, in which progressively less complex mixtures of peptides are found, this assay is the primary determining factor in choosing which samples form the basis of subsequent syntheses.
Plates are read after 3 days. Samples shown in Table I in bold type are chosen for further synthesis. In Table I, all amino acids are D-amino acids and dashes represent undefined amino acid residues.

For another experiment, the system named is Male Sprague-Dawley rats. Description: Serum growth hormone levels in anaesthetized rats after intravenous treatment (radioimmunoassay). The format is in vivo. Particulars: for SGH: GRF 1 µg + Peptide 1 50 µg at 30 min. The method, then:
Evaluation in anaesthetized rats. Male Sprague-Dawley rats are anaesthetized with Sagatal and fitted so as to allow efficient intravenous treatment with control and test compounds as well as frequent blood sampling. Blood samples are tested for growth hormone (GH) levels by radioimmunoassay. Thirty minutes after the initiation of blood sampling, rats are given 5 µg, 25 µg or 50 µg of peptide 1.
Peptide 1 is tested in combination with growth hormone releasing factor (GRF), to investigate whether said peptide may be mimicking the action of GRF. Anaesthetized rats are given GRF (1 µg) alone and in combination with peptide 1 (50 µg). […]

For experiment [1], the target named is T2, SSTR2 (Rattus norvegicus, UniProt P30680). Description: Competitive binding of 125I labeled S-14 to membranes of cells expressing transfected SSTR2 (SPA). Also on record: expressed in transfected cells. The method, then: Membrane preparation. Tissue culture cell lines expressing transfected cDNA clones of SSTR2 and SSTR5 are used as a source of plasma membranes which specifically bind ^125I labeled S-14 (Amersham, Arlington Heights, IL). Cells are removed from culture dishes by incubation at 4°C for 5 minutes in PBS containing 1 mM EDTA, spun down (2,000 rpm, 5') and resuspended in 15 mL homogenization buffer (1 mM sodium bicarbonate pH 7.2, 1 mM EDTA, 1 mM EGTA and the following protease inhibitors: leupeptin and aprotenin at 5 µg/mL and benzamidine and bacitracin at 100 µg/mL). Cells are given 20 strokes with a Dounce homogenizer on ice and spun at 2000 rpm for 10 minutes. Membranes are isolated from the supernatant by centrifugation at 17,000 rpm for 30 minutes. The membrane pellet is washed once in 15 mL homogenization buffer and once in storage buffer (25 mM Tris pH 7.4 containing protease inhibitors). […] The membrane pellet is resuspended in storage buffer, measured for protein concentration (BioRad, CA) and stored at -80°C.
Binding assay. […] Bound radioligand is determined by counting in a Microbeta Liquid Scintillation counter (Wallac, Gaithersburg, MD). Binding data is plotted and IC50 and Ki values are calculated for test compounds using Prism software (Graphpad Software Inc., San Diego, CA) and are shown in Table V. Binding is expressed as Ki, µM.

Experiment [2] addresses T2, SSTR2. Put plainly: cAMP accumulation in forskolin-stimulated GH4C1/SSTR2 cells (SPA radioimmunoassay). The arrangement: expressed in transfected cells; host or cells: GH4C1 rat pituitary tumor cells. The format is cell-based.

As usually defined, the Ki is a measure of affinity in units of concentration, obtained from inhibition or displacement.

T2 sequence (P30680 whole entry): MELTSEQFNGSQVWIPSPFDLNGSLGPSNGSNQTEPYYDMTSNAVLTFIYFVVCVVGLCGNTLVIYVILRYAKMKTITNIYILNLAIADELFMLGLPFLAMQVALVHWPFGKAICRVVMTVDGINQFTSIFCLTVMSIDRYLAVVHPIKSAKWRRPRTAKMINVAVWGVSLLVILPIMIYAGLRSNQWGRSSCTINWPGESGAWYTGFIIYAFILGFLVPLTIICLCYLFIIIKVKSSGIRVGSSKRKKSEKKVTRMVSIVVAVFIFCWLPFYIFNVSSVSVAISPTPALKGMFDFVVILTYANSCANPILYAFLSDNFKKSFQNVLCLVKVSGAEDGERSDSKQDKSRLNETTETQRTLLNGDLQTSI
T1 sequence (P30680 whole entry): as above

`CC[C@@H](C)[C@@H](NC(=O)[C@@H](Cc1ccccc1)NC(=O)[C@@H](Cc1c[nH]cn1)NC(C)=O)C(=O)N[C@H](CCCNC(=N)N)C(=O)N[C@H](Cc1c[nH]c2ccccc12)C(=O)N[C@H](Cc1ccccc1)C(N)=O` [Peptide 1, Ac-D-His-D-Phe-D-Ile-D-Arg-D-Trp-D-Phe-NH2] (Ac-[dH][dF][dI][dR][dW][dF]-NH2): the “Yeast Assay (mm)” value at SRIF receptors (Table III, diameter of zone of growth inhibition) stood at 20 mm. The “Inhibition Zone (mm)” value at SRIF receptors (sample type 4th iteration, read after 3 days, compare only within same experiment) is listed as 18 mm. Besides, the “SGH” value is 195.8 ng/mL with Male Sprague-Dawley rats (time 35 min), 176.2 ng/mL in the experiment on Male Sprague-Dawley rats (time 40 min) and 40.5 ng/mL in the experiment on Male Sprague-Dawley rats (time 45 min). The GH levels result with Male Sprague-Dawley rats (GRF (1 µg) in combination with peptide 1 (50 µg), compared with GRF alone) is “rise faster and higher than with GRF alone”. Further, the Ki at SSTR2 [1] was found to be 140 nM. The cAMP came to 1.14 pM per 4 x 10^4 cells on SSTR2 [2] (Forskolin 1.25 µM + MK 678 10 nM + Peptide 1 1 µM (forskolin + MK 678 alone 0.91)); 2.69 pM per 4 x 10^4 cells at SSTR2 [2] (Forskolin 1.25 µM + MK 678 10 nM + Peptide 1 10 µM (forskolin + MK 678 alone 0.91)); 3.32 pM per 4 x 10^4 cells on SSTR2 [2] (Forskolin 1.25 µM + MK 678 10 nM + Peptide 1 50 µM (forskolin + MK 678 alone 0.91)); 2.57 pM per 4 x 10^4 cells at SSTR2 [2] (Forskolin 1.25 µM, no MK 678, Peptide 1 1 µM (forskolin alone 3.04; baseline 0.36)); 3.05 pM per 4 x 10^4 cells on SSTR2 [2] (Forskolin 1.25 µM, no MK 678, Peptide 1 10 µM (forskolin alone 3.04; baseline 0.36)); 3.33 pM per 4 x 10^4 cells at SSTR2 [2] (Forskolin 1.25 µM, no MK 678, Peptide 1 50 µM (forskolin alone 3.04; baseline 0.36)). On SSTR2 [2] (GH4-C1, test peptide 2 µM, percent reversal of SSTR2 activation by SRIF or MK678, 0% = forskolin plus agonist, 100% = forskolin alone, read-out: cAMP Assay Intrinsic activity), the Emax at 2 µM amounted to 85.2%. Besides, the “forskolin-stimulated cAMP levels in the absence of SRIF (inverse agonist activity)” value at SSTR2 [2] (GH4C1/SSTR2 cells, no added SRIF, Figure 1 (Table II) and Figure 2 (Table IV)) was “causes an increase in forskolin-stimulated cAMP levels even in the absence of SRIF”. Further, at SSTR2 [2] (forskolin stimulated cells, increasing doses of S-14 or MK678, Figure 2 (Table IV)), the “parallelism of the dose response curves of S-14 or MK678 with and without peptide 1” value is “directly competing with the SRIF agonists”.
